Experiments:
rat cardiomyocytes = assay: MemTox membrane leakage (AK / α-GST); assay type: cell-based; conditions: rat, 24 hr
In short: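 Neonatal rat cardiomyocytes were dosed, and the culture medium was collected at the end of exposure to measure total leaked adenylate kinase (luminescence) and/or α-GST (ELISA, 450/650 nm). Percent dead cells was set against 1 mM digitonin as maximum release, then converted to percent live. Values are means of n=3-7.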

H4IIE cells [1] = assay: MTT reduction; assay type: cell-based, rat; conditions: rat, 24 h
In short: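 Rat hepatoma H4IIE cells exposed to compound prepared in complete culture medium, with tetrazolium dye (MTT) reduction used as a mitochondrial-function read-out of cytotoxicity. Values are means of each exposure group (n=3-7).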

iNOS = assay: bDNA analysis of mRNA in rat cardiomyocytes; assay type: cell-based
Description: Nitric oxide was also evaluated since it has been implicated in many pathways related to oxidative stress, apoptosis, and cardiac hypertrophy. More specifically, adriamycin induced mitochondrial toxicity is reduced in the presence of increased iNOS. Thus, a compensatory response to mitochondrial toxicity may be an increase in iNOS (Chaiswing et al., 2005). In this example, rat cardiomyocytes exposed to adriamycin induced iNOS expression more than 15-fold (FIG. 27C).
bDNA Sample Collection and Storage: After 48 hr compound exposure in 96-well plates, 50 μL of stock lysis mixture was added to each 100 μL well. Plates were mixed using a DPC 5 Micromix plate shaker at 37° C. for 15-30 minutes to ensure complete lysis of cells. Cell lysis was confirmed using a Nikon inverted microscope. Plates were stored at −80° C. until further analysis.
bDNA Analysis (Day 1): All solutions were prepared fresh on the day of analysis. Quantigene® bDNA kit components were brought to room temperature prior to use. […]
Substrate working solution was prepared by adding 30 μL of 10% Lithium Lauryl Sulfate to 10 mL Substrate solution per plate. […] Upon completion of last incubation, luminescence was measured using a Packard Fusion or equivalent plate reader with plate heater set to 46° C. Data were collected as relative light units (RLU) and expressed as fold change relative to controls after background subtract.

H4IIE cells [2] = assay: Intracellular total glutathione (GSH); assay type: cell-based, rat; conditions: rat, 24 h
In short: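 Rat hepatoma H4IIE cells were exposed to compound in dosing solutions made in complete culture medium, then harvested for biochemical measurement of intracellular total glutathione as an oxidative-stress marker. Values are exposure-group means, n=3-7.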

[3] = MemTox membrane leakage (AK / α-GST); assay type: cell-based; conditions: human, HUVEC, read-out: MemTox TC50
Description: Membrane Leakage (α-Glutathione S-transferase and/or Adenylate Kinase): The presence of Adenylate Kinase (AK) or α-Glutathione S-transferase (α-GST), both enzyme leakage markers, was measured in the culture medium using an activity assay for Adenylate Kinase and/or an ELISA assay for α-GST. At the end of the exposure period, the medium covering the cells in each well was removed and placed into new 96-well plates with appropriate labeling. […] Luminescence (AK) values were measured with a Packard Fusion or equivalent plate reader, and absorbance (α-GST) values were measured with a Packard SpectraCount™ or equivalent reader at 450 nm and reference absorbance at 650 nm.
Membrane Leakage (α-Glutathione S-transferase and/or Adenylate Kinase): Leakage of Adenylate Kinase or α-GST from the cell into the culture medium was determined by collecting the culture medium at the end of the exposure period. Thus, the values measured represent total enzyme leakage lost over the exposure period. The control for 100% dead or maximum enzyme release was based on cells treated with 1 mM digitonin at the time of dosing. Percent dead cells relative to digitonin treated cells was determined and then subtracted from 100% to yield the percent live cells.
Dosing solutions were prepared in complete culture medium.

Structure (SMILES)	more potent in the heart cells than in liver cells (cell death as marker) (rat cardiomyocytes)	CC50 (H4IIE cells [1])	MTT affected less in liver cells compared to myocytes (H4IIE cells [1])	iNOS expression induction (iNOS)	CC50 (H4IIE cells [2])	CC50 at 24 h [3]
COc1cccc2c1C(=O)c1c(O)c3c(c(O)c1C2=O)C[C@@](O)(C(=O)CO)C[C@@H]3O[C@H]1C[C@H](N)[C@H](O)[C@H](C)O1 [ADRIAMYCIN, Adriamycin]	about 2.5 fold	26 µM	approximately 13 fold	more than 15 fold	48 µM	
CC[C@@]1(O)C(=O)OCc2c1cc1n(c2=O)Cc2cc3ccccc3nc2-1 [CAMPTOTHECIN, Camptothecin]						13 µM

From patent US7615361B2, “Toxicity screening methods” (Ceetox, Inc., priority 2006, dated 2009)
